The values below come from patent US7262197B2, “Phospholipase C inhibitors for use in treating inflammatory disorders” (Janssen Pharmaceutica, N.V, priority 2003, dated 2007).

For orientation: IC50 means the midpoint of a concentration-inhibition curve. Broadly, the inhibition is the drop in the measured response relative to a control, in per cent.

The target of the first experiment is T1, human PLC-β2 (Homo sapiens, UniProt Q00722).
T1 construct: made in house; host or cells: Sf9 cells (Spodoptera frugiperda), recombinant baculovirus
T1 sequence (Q00722 whole entry): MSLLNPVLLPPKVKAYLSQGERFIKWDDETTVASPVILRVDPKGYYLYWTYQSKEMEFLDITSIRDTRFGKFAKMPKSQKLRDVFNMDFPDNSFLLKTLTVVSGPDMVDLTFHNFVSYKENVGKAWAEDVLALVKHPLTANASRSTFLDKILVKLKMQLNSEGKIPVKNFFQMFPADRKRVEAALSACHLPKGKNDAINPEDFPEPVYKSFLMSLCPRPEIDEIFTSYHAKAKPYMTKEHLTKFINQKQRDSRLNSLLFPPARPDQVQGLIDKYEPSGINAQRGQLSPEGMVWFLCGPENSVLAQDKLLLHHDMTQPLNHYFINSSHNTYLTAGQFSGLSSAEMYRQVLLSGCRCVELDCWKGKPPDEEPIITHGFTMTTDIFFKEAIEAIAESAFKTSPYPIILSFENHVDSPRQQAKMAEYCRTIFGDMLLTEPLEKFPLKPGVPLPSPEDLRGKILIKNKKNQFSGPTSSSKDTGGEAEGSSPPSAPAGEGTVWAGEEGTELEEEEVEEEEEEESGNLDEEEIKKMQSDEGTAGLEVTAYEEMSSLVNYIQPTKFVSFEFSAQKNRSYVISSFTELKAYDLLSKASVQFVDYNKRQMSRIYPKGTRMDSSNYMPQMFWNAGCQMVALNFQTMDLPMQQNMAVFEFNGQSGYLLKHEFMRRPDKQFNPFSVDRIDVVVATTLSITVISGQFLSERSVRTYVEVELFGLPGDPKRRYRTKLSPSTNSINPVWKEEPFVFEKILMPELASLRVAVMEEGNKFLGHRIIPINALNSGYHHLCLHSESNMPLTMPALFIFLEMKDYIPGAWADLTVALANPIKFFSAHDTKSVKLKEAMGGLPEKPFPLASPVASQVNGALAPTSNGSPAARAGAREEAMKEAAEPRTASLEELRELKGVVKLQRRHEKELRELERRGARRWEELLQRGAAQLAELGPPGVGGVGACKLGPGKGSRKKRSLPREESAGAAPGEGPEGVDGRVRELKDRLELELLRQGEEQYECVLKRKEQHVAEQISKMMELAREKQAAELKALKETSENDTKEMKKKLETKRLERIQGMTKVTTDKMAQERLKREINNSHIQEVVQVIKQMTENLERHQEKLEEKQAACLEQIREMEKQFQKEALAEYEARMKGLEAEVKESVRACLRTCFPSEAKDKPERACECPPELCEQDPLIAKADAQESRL
Description: PLC assay using FlashPlates (immobilized [3H]PIP2 substrate, 96-well). As to conditions: hydrolysis of immobilized [3H]PIP2; purified recombinant human PLC-β2 or cytosolic human PLC-β2. The experiment is classed as biochemical. From the text: The hydrolysis of phosphatidylinositol-4,5-bisphosphate (PIP2) by a specific phospholipase C-β2 (PLC-β2) produces two intracellular messengers, diacylglycerol (DAG) and inositol 1,4,5-trisphosphate (IP3), which mediate the activation of protein kinase C and intracellular Ca^2+ release. A conventional organic solvent extraction method is widely used for PLC assays to isolate IP3 from the substrate PIP2. The conventional PLC-β2 assay, however is terminated by addition of acidified organic solvents and subsequent extraction and phase separation. […] Accordingly, a preferred method to test the compounds of the present invention, was developed utilizing a 96-well plate assay for PLC-β2 using immobilized radiolabeled substrate to quantitatively measure the reduction in the substrate level without a need for organic solvent extraction. The automated PLC-β2 assay described herein provides a convenient method for quantitative measurement of phospholipase C activities in a high throughput fashion.
Ninety-six well Phospholipid FlashPlates were coated with 0.2 mL of 50 mM Tris/HCl (pH 7.4), 0.01% Ac-BSA and 50,000 cpm of ^[3H]PIP2 (phosphatidylinositol-4,5-bisphosphate) at 4° C. for 72 h. The wells were aspirated and washed twice with PBS. The reactions were conducted directly in the wells in PLC reaction buffer containing 50 mM Tris/HCl (pH 7.2), 2.75 mM EDTA (pH 7.3), 80 mM KCl, 10 mM LiCl, 0.04% DOC and 2 mM CaCl2 in the absence or presence of the purified recombinant human PLC-β2 (prepared as described hereafter) or cytosolic human PLC-β2 from […]. Reduction of radioactivity was monitored by a Packard TopCount instrument (Packard Instrument Company, Conn., USA).
Suspension cultures of Sf9 cells were maintained in a spinner flask at 27° C. and stirred at 90 rpm. The cells were grown in Grace's media supplemented with 10% (v/v) fetal bovine serum, 3.3 g/l yeastolate, 3.3 g/l lactalbumin hydrosylate, glutamine (6.4 mM final), 50 µg/ml gentamicin, and 50 μg/ml kanamycin. Suspension of Sf9 cells (1.0×10^6 cells/ml) were infected with 5 pfu/cell of recombinant baculovirus encoding PLC-β2 and incubated at 27° C. for 72 h. The cells were collected by centrifugation (500×g, 7 min, 4° C.) and disrupted by hypotonic lysis buffer containing 20 mM Tris/HCl, pH 7.4, 5 mM MgCl2, 2 mM EGTA, 200 βM PMSF, 200 βM benzamidine and 1 βM pepstatin A. The lysate was sonicated on ice and the nuclei and unbroken cells removed by centrifugation (500×g, 5 min, 4° C.). The supernatant was recovered and clarified by centrifugation (34,000 rpm, 60 min, 4° C.). The supernatant was used as a crude cytosolic fraction (Paterson, A., Boyer, J. L., Watts, V. J., Morris, A. J., Price, E. M., Harden, T. K. (1995) Concentration of enzyme-dependent activation of PLC β1 and PLC β2 by Gα11 and βγ subunits. Cellular Signalling 7, 709-720).
Crude cytosol prepared from Sf9 cells expressing PLC-β2 was purified initially by chromatography on a 10 ml column of Q-Sepharose FF, equilibrated in buffer A (25 mM HEPES, pH 7.2, 2 mM DTT, 2 mM EDTA, 2 mM EGTA, 200 μM PMSF, 200 μM benzamidine, 1 μM pepstatin A containing 10 mM NaCl). The column was washed with 20 ml of equilibration buffer and eluted with a 200-ml gradient of 110-410 mM NaCl in buffer A. The fractions containing PLC activity were pooled and diluted with buffer A. The diluted enzyme was applied to a 4 ml column of heparin-SepharoseCL-6B equilibrated in buffer A and the column washed with 70 ml of buffer A. The column was eluted with 80 ml of gradient of 0-1.0 M NaCl in buffer A, the column eluate collected in 3 ml fractions. […]
Consider `CCCCS(=O)(=O)Nc1cc(C(=O)N2CCNCC2)ccc1N1CCN(C(c2ccccc2)c2ccccc2)CC1` [Cpd 7, N-[2-[4-(diphenylmethyl)-1-piperazinyl]-5-(1-piperazinylcarbonyl)phenyl]-1-butanesulfonamide], for which the IC50 was greater than 25 µM.
Same read-out and setting: to `Cc1ccc(S(=O)(=O)Nc2cc(C(=O)N3CCNCC3)ccc2N2CCN(C(c3ccccc3)c3ccccc3)CC2)cc1` [Cpd 5, N-[2-[4-(diphenylmethyl)-1-piperazinyl]-5-(1-piperazinylcarbonyl)phenyl]-4-methyl-benzenesulfonamide] belongs 10.8 µM; to `O=C(c1ccc(N2CCN(C(c3ccccc3)c3ccccc3)CC2)c(NS(=O)(=O)c2ccc(Cl)cc2)c1)N1CCNCC1` [Cpd 6, 4-chloro-N-[2-[4-(diphenylmethyl)-1-piperazinyl]-5-(1-piperazinylcarbonyl)phenyl]-benzenesulfonamide], 8.7 µM.
Same read-out and setting: to `CS(=O)(=O)c1ccc(N2CCN(C(c3ccccc3)c3ccccc3)CC2)c(NC(=O)Nc2ccccc2)c1` [Cpd 9, N-[2-[4-(diphenylmethyl)-1-piperazinyl]-5-(methylsulfonyl)phenyl]-N′-phenyl-urea] belongs greater than 10 µM; to `CS(=O)(=O)Nc1cc(C(=O)N2CCNCC2)ccc1N1CCN(C(c2ccccc2)c2ccccc2)CC1` [Cpd 8, N-[2-[4-(diphenylmethyl)-1-piperazinyl]-5-(1-piperazinylcarbonyl)phenyl]-methanesulfonamide], 9.8 µM.
Turning to `Cc1ccc(C(=O)Nc2cc(C(=O)N3CCNCC3)ccc2N2CCN(C(c3ccccc3)c3ccccc3)CC2)cc1` [Cpd 1, N-[2-[4-(diphenylmethyl)-1-piperazinyl]-5-(1-piperazinylcarbonyl)phenyl]-4-methyl-benzamide], the IC50 turned out to be 12.6 µM.
On the same count and under the same terms, to `CCC(=O)Nc1cc(C(=O)N2CCNCC2)ccc1N1CCN(C(c2ccccc2)c2ccccc2)CC1` [Cpd 4, N-[2-[4-(diphenylmethyl)-1-piperazinyl]-5-(1-piperazinylcarbonyl)phenyl]-propanamide] belongs greater than 25 µM; to `COC(=O)c1ccc(N2CCN(C(c3ccc(F)cc3)c3ccc(F)cc3)CC2)c(NC(=O)Nc2ccccc2)c1` [Cpd 11, 4-[4-[bis(4-fluorophenyl)methyl]-1-piperazinyl]-3-[[(phenylamino)carbonyl]amino]-benzoic acid methyl ester], greater than 10 µM.
On the same count and under the same terms, for `Cc1oc(-c2ccc(Cl)cc2)cc1C(=O)Nc1cc(C(=O)N2CCNCC2)ccc1N1CCN(C(c2ccccc2)c2ccccc2)CC1` [Cpd 2, 5-(4-chlorophenyl)-N-[2-[4-(diphenylmethyl)-1-piperazinyl]-5-(1-piperazinylcarbonyl)phenyl]-2-methyl-3-furancarboxamide] the value was 17.4 µM; for `O=C(Nc1cc(C(=O)N2CCNCC2)ccc1N1CCN(C(c2ccccc2)c2ccccc2)CC1)c1ccco1` [Cpd 3, N-[2-[4-(diphenylmethyl)-1-piperazinyl]-5-(1-piperazinylcarbonyl)phenyl]-2-furancarboxamide], 21.6 µM; for `O=C(Nc1ccccc1)Nc1cc(CO)ccc1N1CCN(C(c2ccc(F)cc2)c2ccc(F)cc2)CC1` [Cpd 10, N-[2-[4-[bis(4-fluorophenyl)methyl]-1-piperazinyl]-5-(hydroxymethyl)phenyl]-N′-phenyl-urea], greater than 10 µM.

The experiment is the same for the next values; noted with them: printed in brackets beside IC50 >10 μM; test concentration not stated.
The compound `CS(=O)(=O)c1ccc(N2CCN(C(c3ccccc3)c3ccccc3)CC2)c(NC(=O)Nc2ccccc2)c1` [Cpd 9, N-[2-[4-(diphenylmethyl)-1-piperazinyl]-5-(methylsulfonyl)phenyl]-N′-phenyl-urea] yielded an inhibition at up to 10 µM of 60%.
Still for that read-out and setting: to `O=C(Nc1ccccc1)Nc1cc(CO)ccc1N1CCN(C(c2ccc(F)cc2)c2ccc(F)cc2)CC1` [Cpd 10, N-[2-[4-[bis(4-fluorophenyl)methyl]-1-piperazinyl]-5-(hydroxymethyl)phenyl]-N′-phenyl-urea] belongs 47%.
